Measurements from patent US7666994B2, “Cloning and expression of gonadotropin-releasing hormone (GnRH) receptors” (University of New Hampshire, priority 2004, dated 2010).
Ends that are not written are not given here.

How the values were obtained:
[1] = tested on: lamprey GnRH receptor; test: Inositol phosphate (IP) assay in COS7 cells transiently transfected with the lamprey GnRH receptor; type: cell-based, sea lamprey, Petromyzon marinus; conditions: for IP response on stimulation of transiently transfected COS7 cells: in words; for LogEC50, IP accumulation: mean±SEM, n=3, COS7 cells transiently transfected with lamprey GnRH receptor, 10^-6M to 10-11 M, 1 hour at 37° C.; for IP accumulation in cells transfected with blank pcDNA3.1 vector: negative control cells without receptor, data not shown
Protocol: (§1) The coding region of the lamprey GnRH-R was inserted into the pcDNA3.1 HisTOPO mammalian expression vector (Carlsbad, Calif.) (INVITROGEN, Carlsbad, Calif.). COS7 cells were cultured in 10% fetal bovine serum (FBS) in Dulbeccos Modified Eagles Medium (DMEM) (INVITROGEN), and were maintained at 37° C. in 5% CO 2. The day before transfection, 5×10^5 cells were seeded in 60 mm culture plates. Transfection was performed using 5 μg of vector and 15 μL of Lipofectamine (INVITROGEN) in 2.4 mL total volume in Opti-MEM-I (Invitrogen) and an incubation time of 5 hours at 37° C. in 5% CO 2, after which, 2.5 mL of 20% FBS in DMEM was added and cultures were grown overnight.
(§2) Twenty-four hours after transfection (day 2), cells were trypsinized and 96-well plates were seeded with 5×10^4 cells/well, and cultures were grown overnight. Day 3, cells were stimulated with either control (ID buffer −1.0 mM 3-isobutyl-1-methylxanthine in DMEM) or varying concentrations (10^-10M to 10^-4M) of either lamprey GnRH-I or lamprey GnRH-III (in ID buffer). cAMP assays were performed using the BIOTRAK Enzymeimmunoassay system (AMERSHAM), per the manufacturers instructions. Treatments were performed in triplicate in three independent experiments, while cells transfected with blank vector were used as negative controls. Analyses were performed using GRAPHPAD (Prism, San Diego, Calif.). Inositol Phosphate Assay The inositol phosphate (IP) stimulation and extraction protocol used was adapted from previous studies. Briefly, 24 hours after transfection, cells were trypsinized, and seeded in 12-well plates at approximately 1.5×10^5 cells/well. At hour 72 cells were washed in PBS and incubated in 1 mL of 2% dialyzed fetal bovine serum and 2 μCi/mL myo […] inositol (AMERSHAM) in medium 199 (INVITROGEN). At hour 96 cells were washed 2 times with IP buffer (1×HBSS, 20 mM HEPES, 20 mM LiCL), and were pre-incubated in IP buffer for 15 minutes at 37° C., followed by stimulation with concentrations of lamprey GnRH-I or lamprey GnRH III, in IP buffer, ranging from 10^-6M to 10-11 M, for 1 hour at 37° C. with gentle shaking. The reactions were stopped with the addition of 0.2 mL of pre-chilled 20% perchloric acid, and the plates were placed on ice for 30 minutes. The wells were scraped and the extracts were transferred to sterile 1.5 mL tubes and neutralized with 5M KOH, followed by a 1 hour incubation at 4° C. Tubes were centrifuged at 5,000 rpm at 4° C. for 15 minutes, and 1.2 mL of supernatant was transferred to a new sterile 1.5 mL tube. IPs (IP, IP2 and IP3) were isolated by ion exchange chromatography using AGlX8-200 resin (Bio-Rad) in formate form. IPs were eluted with 1 M ammonium formate/0.1 M formic acid, samples were counted by liquid scintillation and data were analyzed using Prism (GRAPHPAD). Treatments were performed in triplicate in three independent experiments, and cells transfected with blank vector and non-transfected cells were used as negative controls.

[2] = tested on: lamprey GnRH receptor; test: cAMP assay in COS7 cells transiently transfected with the lamprey GnRH receptor; type: cell-based, sea lamprey, Petromyzon marinus; conditions: for cAMP response on stimulation of transiently transfected COS7 cells: in words; for LogEC50, cAMP accumulation: mean±SEM, n=3, COS7 cells transiently transfected with lamprey GnRH receptor, 10^-10M to 10^-4M; for cAMP accumulation in cells transfected with blank pcDNA3.1 vector: negative control cells without receptor, data not shown
Protocol: as §1, §2

[3] = tested on: incubated hemipituitaries of male rats; conditions: cited from earlier work
[4] = tested on: lamprey GnRH receptor transcript; test: Transcriptional regulation of the GnRH receptor transcript by lamprey GnRH-III (RT-PCR, densitometry normalized to β-actin); type: in vivo, adult male lamprey
Protocol: Forty adult male lamprey's were injected intraperitoneally, twenty (20) with lamprey GnRH-III (200 μL of 0.45 μg/μL lamprey GnRH-III in 0.6% saline) and twenty (20) with control (200 μL of 0.6% saline). Ten (10) fish from each treatment group were sacrificed 24 hours after injection, and brains, pituitaries, kidneys, and testes were dissected and frozen in liquid nitrogen. Forty-eight hours after the first injection, the remaining animals were injected a second time with the same treatment they originally received. Twenty-four hours after the second injection, all remaining animals were sacrificed and tissues dissected and snap frozen. Total RNA was isolated from all tissues using Tri-Reagent (Molecular Research Center, Inc.), treated with RQ1 DNase (PROMEGA), and used as template for RT-PCR with the AccessQuick RT-PCR system (PROMEGA) using the same conditions as above, except 50 ng of template was used per reaction. Reactions were electrophoresed and visualized in 2% agarose gels. Parallel reactions were performed using primers to β-actin as a positive control. Receptor bands were normalized to β-actin and densitometry was performed using a Molecular Imager FX (BioRad, Hercules, Calif.) to determine effects of lamprey […] injection.

[5] = relative to lamprey GnRH-I, one statement for both signaling systems
[6] = after both one and two injections, densitometry normalized to β-actin, N=10

Chain of lamprey GnRH receptor (as listed by the source): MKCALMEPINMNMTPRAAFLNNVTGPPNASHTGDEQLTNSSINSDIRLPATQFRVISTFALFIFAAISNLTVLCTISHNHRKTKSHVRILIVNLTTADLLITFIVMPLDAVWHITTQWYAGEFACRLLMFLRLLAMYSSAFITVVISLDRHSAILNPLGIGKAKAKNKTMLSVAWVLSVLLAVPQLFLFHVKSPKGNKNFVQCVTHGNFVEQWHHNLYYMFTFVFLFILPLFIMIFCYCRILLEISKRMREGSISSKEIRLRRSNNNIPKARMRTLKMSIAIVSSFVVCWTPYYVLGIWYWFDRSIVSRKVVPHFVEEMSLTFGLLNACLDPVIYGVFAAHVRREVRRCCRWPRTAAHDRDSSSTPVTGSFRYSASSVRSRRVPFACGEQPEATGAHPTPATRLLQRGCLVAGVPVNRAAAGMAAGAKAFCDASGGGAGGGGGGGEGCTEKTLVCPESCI

Row | Substance | IP response on stimulation of transiently transfected COS7 cells [1] | LogEC50, IP accumulation [1] | IP accumulation in cells transfected with blank pcDNA3.1 vector [1] | cAMP response on stimulation of transiently transfected COS7 cells [2] | LogEC50, cAMP accumulation [2] | cAMP accumulation in cells transfected with blank pcDNA3.1 vector [2] | FSH-releasing action [3] | LH-releasing action [3] | logEC50 fold lower than that of lamprey GnRH-I, IP system [1, 5] | logEC50 fold lower than that of lamprey GnRH-I, cAMP system [2, 5] | receptor transcript regulation in pituitary compared to control [4, 6] | receptor transcript regulation in testes compared to control [4, 6] | receptor transcript bands in pituitary versus control ([4]; after one injection, intraperitoneal, 24 hours after injection) | GnRH receptor transcript level in testes versus control ([4]; after one injection, intraperitoneal, 24 hours after injection, control testes high levels) | receptor transcript expression in brain ([4]; after one or two injections) | effects on receptor transcript in pituitary and testes after two injections, relative to one injection ([4]; two injections 48 hours apart, 24 hours after second injection)
1 | lamprey GnRH-I: one of two hypothalamic GnRH isoforms (decapeptide) identified in the brain of the lamprey (QHYSLEWKPG; ends and bridges not checked) | dose dependant responses | −8.10±0.150 | no response | dose dependant responses | −6.57±0.150 | no response | little activity | little activity | – | – | – | – | – | – | – | –
2 | lamprey GnRH-III: hypothalamic lamprey GnRH isoform (decapeptide), Tyr instead of Trp in the third position | dose dependant responses | −9.37±0.243 | no response | dose dependant responses | −8.29±0.090 | no response | potent, dose-related | – | 40-50 fold | 40-50 fold | up-regulated | down-regulated | twice as bright as control | barely detectable levels | not induced | considerably lesser degree
